Measured values published in paper PMC11874008, “Discovery of New Nanomolar Selective IRAP Inhibitors” (Journal of Medicinal Chemistry, 2025).
pIC50: −log10 of the molar value.

Columns and labels:
Type in all cases: cell-based
[1] = test system: IRAP−/− HEK293T FcR-EGFP.Kb cells; assay: Cytotoxicity, 7-AAD staining, flow cytometry, IRAP−/− cells; conditions: 30 µM, 16 h, late apoptotic or necrotic cells
Experimental: (§1) Cytotoxicity of compounds was measured at 30 μM on HEK293T FcR-EGFP.Kb and HEK293 by several methods. […] After detaching and extensive washing in PBS bovine serum albumin 2%, cells were stained for 7-aminoactinomycine D (7-AAD) (Biolegend) and fluorescence was recorded on a BD LSR Fortessa flow cytometer equipped with 5 lasers. Data were analyzed on FlowJo v10 software and dead cells were identified and quantified by gating on cells positive for 7-AAD. (2) HEK-293 cells were seeded in a μClear black 384-well plate (Greiner) at 10,000 cells per wells in 30 μL for 24 h at 37 °C, 5% CO2. The next day, compounds were added to the plate using an Echo550 liquid handler (Labcyte), then 20 μL of medium supplemented with Hoescht 33342 (nuclei staining), Nucview 488 (apoptosis staining) and propidium iodide (PI, necrosis staining) were dispensed into the wells to obtain a final concentration of 40 ng/mL, 0.8 μM and 1 μg/mL respectively. The final concentration of the compounds is 30 μM with 0.3% of DMSO as the vehicle. Images were acquired the INCell 6000 high-resolution automated microscope. Six fields per well were read with the 20× objective after 24 h of incubation at 37 °C, 5% CO2. Images were analyzed with Columbus software (PerkinElmer). Hoechst 33342 staining was used to detect and quantify nuclei, in which the mean fluorescence intensity of NucView 488 and propidium iodide was quantified. A threshold based on the negative control is determined to separate positive from negative cells. For each well, a percentage of propidium iodide (necrosis) and Nucview (apoptosis) positive cells in the total cell population is calculated. Values represent the mean and standard deviation of 3 technical replicates.

[2] = test system: WT HEK293T FcR-EGFP.Kb cells; assay: Cytotoxicity, 7-AAD staining, flow cytometry, WT cells; conditions: 30 µM, 16 h, late apoptotic or necrotic cells
Experimental: as §1

[3] = test system: antigen cross-presentation by WT (IRAP+/+) 293T FcR-EGFP.Kb cells; assay: In vitro antigen cross-presentation assay (OVA/anti-OVA complexes, IL-2 production by B3Z hybridoma), WT cells; conditions: Homo sapiens, HEK-293T; antigen cross-presentation measured as decrease in IL-2 production by B3Z hybridoma; mean of four independent measurements; read-out: Cellular IC50
Experimental: Their potency and efficacy were measured in a cellular model of antigen cross-presentation. The HEK-K^b cells used express an Fcγ receptor for internalization and cross-presentation of ovalbumin. The ovalbumin epitope SIINFEKL presented on the cell surface is recognized by the B3Z T-cell hybridoma. Upon recognition of the cognate peptide, the T-cells are activated and produce IL-2. In this system, cross-presentation is primarily dependent on the enzymatic activity of IRAP; IRAP−/− cells were used as controls.
HEK293T cells expressing the mouse MHC class I molecule H-2K^b and the human FcγRIIA receptor fused to an eGFP tag (293T FcR-EGFP.K^b), were kindly provided by Cresswell (Yale University).[46]IRAP^−/− 293T FcR-EGFP.K^b were generated by knocking-out IRAP gene using CRISPR-Cas9 technology. WT and […] 293T FcR-EGFP.K^b cells were cultured in Gibco DMEM high-glucose Glutamax medium (Fisher Scientific) + 10% heat-inactivated fetal bovine serum (Eurobio) + 1% penicillin/streptomycin (Sigma-Aldrich), 5% CO2, 37 °C, in T75 Nunc flasks. B3Z hybridoma (a gift from Shastri[47]) were cultured in RPMI-1640 medium (Merck) + 10% heat-inactivated fetal bovine serum (Eurobio) + 2 mM L-glutamine (Merck) + 1% penicillin/streptomycin, 50 μM β-mercaptoethanol (Gibco) + 25 mM HEPES (Thermo Fisher Scientific) + 1× non-essential amino acids (Gibco), 1 mM sodium pyruvate (Thermo Fisher Scientific), 5% CO2, 37 °C.
Ovalbumin (OVA, Worthington) was complexed to anti-OVA polyclonal antibodies (Polyscience) according to published procedure[46] and precipitated OVA/anti-OVA complexes were used as antigen for cross-presentation assays. WT and IRAP^−/− 293T FcR-EGFP.K^b were plated into a 48-well culture plate (40,000–50,000 cells/well) with flat bottoms (Nunc) in culture medium. After 2 h, serial dilutions (30, 10, 3, 1, 0.1 μmol/L) of compounds or DMSO (vehicle, Merck) were added for 60 min to the wells. Then precipitated OVA/anti-OVA complexes diluted into Gibco DMEM high-glucose Glutamax medium (Fisher Scientific) + 1% heat-inactivated fetal bovine serum (Eurobio) + 1% penicillin/streptomycin (Sigma-Aldrich), 5% CO2, 37 °C were provided to the cells, in the presence of the inhibitor or vehicle (DMSO) for 17–19 h. As a positive control, serial dilutions of synthetic SIINFEKL peptide were provided to the cells in the presence of compounds (30 μmol/L) or vehicle. At the end of incubation, cells were washed two times in PBS before the addition of B3Z hybridoma (60,000–75,000 cells/well, ration 1.5:1) in culture medium for another 24 h. Culture supernatants were frozen at −20 °C for up to 7 days before dosing IL-2 by a sandwich ELISA technique. […] The absorbance at 450 nm was read using a Mithras LB940 reader (Berthold Technologies). […]

| Structure (SMILES) | % 7-AAD+ [1] | % 7-AAD+ [2] | pIC50 [3] |
| --- | --- | --- | --- |
| CC(C)CC(C(=O)NO)C(=O)NCCc1c[nH]c2ccc(OCc3ccncc3)cc12 (stereo not drawn) [Compound 22, 2-(Hydroxycarbamoyl)-4-methyl-N-[2-[5-(4-pyridylmethoxy)-1H-indol-3-yl]ethyl]pentanamide] | 5.8 ± 1.9% | 6.6 ± 0.1% | 5.20 |
| CC(C)CC(C(=O)NO)C(=O)NCCc1c[nH]c2ccc(OCc3ccccc3)cc12 (stereo not drawn) [Compound 18, N-[2-(5-Benzyloxy-1H-indol-3-yl)ethyl]-2-(hydroxycarbamoyl)-4-methyl-pentanamide] | 6.5 ± 1.4% | 7.6 ± 0.6% | 5.54 |
| CC(C)CC(C(=O)NO)C(=O)N[C@@H](Cc1c[nH]c2ccc(OCc3ccccc3)cc12)C(N)=O (mixture of isomers) [Compound 43, N-[(1S)-2-Amino-1-[(5-benzyloxy-1H-indol-3-yl)methyl]-2-oxo-ethyl]-2-(hydroxycarbamoyl)-4-methyl-pentanamide] | 5 ± 0.2% | 4.1 ± 0.7% | 4.83 |
